Several values for one entry are separate records, joined by “and”; a condition that tells them apart may be missing. Identical values can stand only once. Like-named read-outs stand apart in the source and are kept apart here.
Columns and labels:
[1] = tested on: Diphyllobothrium erinacei; assay: Test of anthelmintic effect against Diphyllobothrium erinacei (tapeworm) in experimentally infected cats (Test Examples A5, B5, C5, D5); conditions: for Number of worm bodies remaining in enteron: cats infected with 5 plerocercoids, autopsy ten days after administration, one value per cat; for Worm egg detection on 10th day after administration / anthelmintic effect: cats; for anthelmintic effect: 5 continuous administrations of 50 mg/Kg
[2] = tested on: swine roundworm (Ascaris suum); assay: Test of anthelmintic effect in naturally infected pigs, E.P.G. on 7th day: swine roundworm (Test Examples A9, B9, C9, D9); assay type: in vivo; conditions: for anthelmintic effect: pigs infected with swine roundworm and swine whipworm (statement covers both)
Method: (§1) Six pigs infected with swine roundworm and swine whipworm (naturally infected pigs) were employed in groups each of two pigs.
(§2) As a control, only gelatin capsules were administered orally to the two pigs.
(§3) Before administration and on the 7th day after. administration, fecal matter testing was conducted to calculate the E.P.G., and the anthelmintic effect was judged by the changing of the E.P.G. to negative'.
(§4) 50 mg of each compound was placed in a gelatin capsule per 1 Kg of body weight and administered orally to each of the two pigs. As control, only gelatin capsules were administered orally to two pigs.
(§5) 30 mg of each compound was placed in a gelatin capsule per 1 Kg of body weight and administered orally to each of the two pigs. As control, only gelatin capsules were administered orally to two pigs.

[3] = tested on: Liver fluke; Fasciola hepatica (F. hepatica); assay: Test of anthelmintic effect against rat infected experimentally with liver fluke (Test Examples A11, B11, C11, D11); assay type: in vivo; set-up: key to Presence or absence of fluke egg in fecal matter On 21st day after the last administration: +: indicates detection of fluke egg; -: indicates no detection; conditions: for anthelmintic effect: five administrations in a dose of 50 mg/Kg each
Text: Twenty-eight (28) rats were employed in fourteen groups each of two rats, each rat being infected with 5 metacercariae of Liver fluke; Fasciola he^patica (F.. hepatica) and confirmed to have worm eggs on the 75th day after infection according to fecal matter testing.
Judgement of the effect was made by the presence or absence of the worm gees in the fecal matter on the 21st day after the last administration and by examination according to autopsis as to whether the worm bodies were dead or alive in the liver.
The same as that in Test Example All, but eight (8) rats were employed by grouping them into groups each of two rats, each rat being infected with 5 metacercariae of liver fluke and confirmed to have fluke eggs on the 75th day after infection according to fecal matter testing.
The compounds provided for the tests were Compound Nos. Bl, B8 and B19.
The same as that in Test Example All, but six (6) rats were employed by grouping them into groups each of two rats, each rat being infected with 5 metacercariae of Fasciola hepatica and confirmed to have worm eggs on the 75th day after infection according to fecal matter testing.
The compounds provided for the tests were Compound Nos. C2 and C6.
The same as that in Test Example All, but the compounds provided for tests were Compound Nos. D14, D15 and D16.

[4] = tested on: swine whipworm (Trichuris suis); assay: Test of anthelmintic effect in naturally infected pigs, E.P.G. on 7th day: swine whipworm (Test Examples A9, B9, C9, D9); assay type: in vivo
Method: as §1, §2, §3, §4, §5

[5] = tested on: fowl roundworm (Ascaridia galli); assay: Anthelmintic test in chickens artificially infected with fowl roundworm, single oral dose in gelatin capsule, worm bodies counted within 48 hours (Test Examples A1, B1, C1, D1); assay type: in vivo; conditions: Ascaridia galli, po, 48 h, read-out: Anthelmintic effect after 48 hours
Method in brief: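 Groups of three chickens with confirmed Ascaridia galli infection given a single oral dose in gelatin capsule (10 and 20 mg/kg in A1 and B1; 30 and 50 mg/kg in C1; 15 and 30 mg/kg in D1). Worms expelled over 48 h and those remaining in the gut at necropsy counted to give anthelmintic percentage.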

[6] = tested on: fowl roundworm (As. galli); assay: Anthelmintic test in chickens artificially infected with fowl roundworm, compound added to feed, E.P.G. and worm count up to 21st day (Test Examples A2, B2, C2, D2); assay type: in vivo, Ascaridia galli; conditions: for inhibition in vivo at 20 ppm / inhibition in vivo at 50 ppm / inhibition in vivo at 10 ppm / inhibition in vivo at 25 ppm: Ascaridia galli, 504 h, read-out: Anthelmintic effect; for inhibition in vivo at 20 ppm: 20 ppm added to feed; for inhibition in vivo at 10 ppm: 10 ppm added to feed
[7] = tested on: stomach worm (Haemonchus controtus); assay: Anthelmintic test against cow stomach worm in naturally infected cows, E.P.G. on 7th day (Test Examples A6, B6, C6, D6); assay type: in vivo; conditions: cows
Method: Three cows infected with stomach worm (naturally infected cows) were employed by grouping them into a group of two and a group of one.
(§6) As control, only gelatin capsules were administered orally to the one cow.
(§7) Before administration and on the 7th day after administration, fecal matter testing was conducted to calculate the E.P.G., and the anthelmintic effect was judged by the changing of the E.P.G. to negative.
as §6, §6

[8] = tested on: swine Oesophagostomum (Oesophagostomum dentatum); assay: Test of anthelmintic effect against swine Oesophagostomum in naturally infected pigs, E.P.G. on 7th day (Test Examples A8, B8, C8, D8); assay type: in vivo; conditions: for anthelmintic effect: one administration of 20 mg/Kg
Method: Six pigs infected with swine Oesophagostomum (naturally infected pigs) were employed by grouping them into groups each of two pigs.
as §2, §7

[9] = tested on: canine filaria; Dirofilaria immitis; assay: Test of anthelmintic effect against canine filaria in naturally infected dogs, subcutaneous injection, microfilaria in blood and adult filaria at autopsy (Test Examples A10, B10, C10, D10); assay type: in vivo; conditions: for inhibition in vivo at 20 mg/kg: Dirofilaria immitis, sc, 240 h
[10] = tested on: canine strongyloides (Strongyloides stercoralis); assay: Anthelmintic test against canine strongyloides in naturally infected dogs, E.P.G. on 7th day (Test Examples A4, B4, C4, D4); assay type: in vivo; conditions: dogs, 10 mg/Kg orally once, one value per dog
Method: Three dogs infected with canine strongyloides (naturally infected dogs) were employed by grouping them into a group of two and a group of one.
As control, only a gelatin capsule was administered orally to the one dog.
as §7
(§8) As control, only gelatin capsules were administered orally to the one dog.
as §8

[11] = pigs, 50 mg/Kg orally once, Ascaris suum, one value per pig
[12] = pigs, 50 mg/Kg orally once, one value per pig
[13] = chickens, 30 mg/Kg orally in gelatin capsule, one value per chicken (No.1-3)
[14] = chickens, 50 mg/Kg orally in gelatin capsule, one value per chicken (No.1-3)
[15] = po, chickens, worm count on 21st day, one value per chicken
[16] = po, chickens, 50 ppm added to feed, worm count on 21st day, one value per chicken
[17] = pigs, 20 mg/Kg orally once, one value per pig
[18] = rats, 50 mg/Kg x 5 orally, autopsy, liver, "Denatured" = fluke body is alive but a part of fluke body has changed, one value per rat
[19] = rats, 50 mg/Kg x 5 orally, one value per rat
[20] = dogs, administration of 20 mg/Kg repeated three times, given as about 50% or more, read-out: anthelmintic effect against adult filaria
[21] = dogs, 20 mg/Kg x 3 subcutaneously, autopsy on 10th day after the last administration, one value per dog, 20 mg/kg
[22] = dogs, administration of 20 mg/Kg repeated three times
[23] = pig, Ascaris suum, 30 mg/Kg oral in gelatin capsule, one administration
[24] = pig, 30 mg/Kg oral in gelatin capsule, one administration
[25] = chicken, 30 mg/Kg oral in gelatin capsule, chickens No.1-3
[26] = chicken, 50 mg/Kg oral in gelatin capsule, chickens No.1-3
[27] = feed or water, chicken, 25 ppm in feed
[28] = feed or water, chicken, 50 ppm in feed

C=CCN(OCCCC)C(=O)c1ccccc1 [Compound B19, N-allyl-N-benzoyl-0-butylhydroxylamine]
Number of worm bodies remaining in enteron ([1]; 50 mg/Kg x 5 times orally): 0
Worm egg detection on 10th day after administration ([1]; 50 mg/Kg x 5 orally, one value per cat (Table B7)): -
anthelmintic effect [1]: marked anthelmintic effects
anthelmintic effect ([2]; one administration of 50 mg/Kg): marked anthelmintic effect
Change of E.P.G. 7th day [2, 11]: 0 E.P.G.
Condition of fluke body ([3]; rat, 50 mg/Kg x 5): dead
Presence or absence of fluke egg in fecal matter On 21st day after the last administration ([3]; rat, 50 mg/Kg x 5): -
anthelmintic effect ([3]; rats): marked antihelmintic effect
Change of E.P.G. 7th day [4, 12]: 0 E.P.G.
inhibition in vivo at 30 mg/kg [5, 13]: 100%
inhibition in vivo at 50 mg/kg [5, 14]: 100%
inhibition in vivo at 20 ppm [6, 15]: 80 to 90%
inhibition in vivo at 50 ppm [6, 16]: 100%

C#CCN(OCC=C)C(C)=O [Compound A3, N-propargyl-N-acetyl-O-allylhydroxylamine]
Number of worm bodies remaining in enteron ([1]; 50 mg/Kg x 5 times orally): 0
Worm egg detection on 10th day after administration ([1]; 50 mg/Kg x 5 times orally, one value per cat (Table A7)): -
anthelmintic effect [1]: marked anthelmintic effects
Change of E.P.G. Before administration ([7]; 15 mg/Kg orally once, baseline, one value per cow, 15 mg/kg): 1,700 E.P.G. and 1,500 E.P.G.
Change of E.P.G. 7th day ([7]; 15 mg/Kg orally once, one value per cow): 0 E.P.G.
anthelmintic effect ([7]; one administration of 15 mg/Kg): marked anthelmintic effect
Change of E.P.G. Before administration ([8]; pigs, 20 mg/Kg orally once, baseline, one value per pig, 20 mg/kg): 1,600 E.P.G. and 1,000 E.P.G.
Change of E.P.G. 7th day [8, 17]: 0 E.P.G.
anthelmintic effect ([8]; pigs): marked anthelmintic effect
Condition of fluke body [3, 18]: dead
Presence or absence of fluke egg in fecal matter On 21st day after the last administration [3, 19]: -
inhibition in vivo at 20 mg/kg [9, 20]: ≥ 50%
Effect on adult filaria: Number of worms killed/Total parasites [9, 21]: 13/18 and 4/ 8
Effect on adult filaria: Percent of worms killed [9, 21]: 72% and 50%
Number of microfilaria/20 µl On 10th day after the last administration ([9]; dogs, 20 mg/Kg x 3 subcutaneously, earlobe blood, one value per dog): 0 /20 µl
anthelmintic effect against microfilaria (mf) [9, 22]: marked anthelmintic effect
Change of E.P.G. Before administration ([10]; baseline, 10 mg/kg): 1,900 E.P.G. and 2,700 E.P.G.
Change of E.P.G. 7th day [10]: 0 E.P.G.
inhibition in vivo at 10 ppm [6, 15]: 100%
inhibition in vivo at 50 ppm [6, 16]: 100%

C=CCON(CC=C)C(=O)c1ccccc1 [Compound C6]
Change of E.P.G. 7th day [2, 23]: 0
anthelmintic effect ([2]; one administration of 30 mg/Kg): marked anthelmintic effect
Change of E.P.G. 7th day ([8]; pig, Oesophagostomum dentatum, 20 mg/Kg, one administration): 0
anthelmintic effect ([8]; pigs): marked anthelmintic effect
Condition of fluke body ([3]; rat, 50 mg/Kg x 5): dead
Presence or absence of fluke egg in fecal matter On 21st day after the last administration ([3]; rat, 50 mg/Kg x 5): -
anthelmintic effect ([3]; rats): marked antihelmintic effect
Change of E.P.G. 7th day [4, 24]: 0
Change of E.P.G. Before administration ([4]; pig, before 30 mg/Kg oral (baseline)): 4,300 and 5,800
inhibition in vivo at 30 mg/kg [5, 25]: 100%
inhibition in vivo at 50 mg/kg [5, 26]: 100%
inhibition in vivo at 25 ppm [6, 27]: 100%
inhibition in vivo at 50 ppm [6, 28]: 100%
Change of E.P.G. 21st day ([6]; chicken, 25 ppm in feed): 0
Change of E.P.G. 21st day ([6]; chicken, 50 ppm in feed): 0

C#CCNOCC.Cl [Compound D10, N-propargyl-O-ethylhydroxylamine hydrochloride]
Change of E.P.G. 7th day ([2]; pig, Ascaris suum, 20 mg/Kg, one administration): 0
Change of E.P.G. 7th day ([4]; pig, 20 mg/Kg, one administration): 0
inhibition in vivo at 15 mg/kg ([5]; chicken, 15 mg/Kg oral in gelatin capsule, chickens No.1-3): 100%
inhibition in vivo at 30 mg/kg [5, 25]: 100%
inhibition in vivo at 20 mg/kg ([9]; dog, 20 mg/Kg x 3, subcutaneous injection, read-out: Effect on adult filaria: Percent of worms killed): 54%
inhibition in vivo at 20 mg/kg [9, 20]: ≥ 50%
Number of microfilaria/20µl On 10th day after the administration ([9]; dog, 20 mg/Kg x 3, subcutaneous injection): 0 /20µl
Effect on adult filaria: Number of worms killed/ Total parasite ([9]; dog, 20 mg/Kg x 3, subcutaneous injection, hydrochloride, 20 mg/kg): 18/33 and 20/28
anthelmintic effect against microfilaria (mf) [9, 22]: marked anthelmintic effect

C=CCON(CC=C)C(=O)CCC [Compound C3]
Change of E.P.G. 7th day [2, 23]: 0
Change of E.P.G. Before administration ([2]; pig, Ascaris suum, before 30 mg/Kg oral (baseline)): 1,300 and 2,100
anthelmintic effect ([2]; one administration of 30 mg/Kg): marked anthelmintic effect
Change of E.P.G. 7th day [4, 24]: 0
inhibition in vivo at 30 mg/kg [5, 25]: 80 to 90%
inhibition in vivo at 50 mg/kg [5, 26]: 100%
inhibition in vivo at 25 ppm [6, 27]: 80 to 90%
inhibition in vivo at 50 ppm [6, 28]: 100%

C#CCN(OCCCC)C(=O)c1ccccc1 [Compound A10, N-propargyl-N-benzoyl-O-butylhydroxylamine]
anthelmintic effect ([2]; one administration of 20 mg/Kg): marked anthelmintic effect
Change of E.P.G. 7th day ([2]; pigs, 20 mg/Kg orally once, Ascaris suum, one value per pig): 0 E.P.G.
Condition of fluke body [3, 18]: dead
Presence or absence of fluke egg in fecal matter On 21st day after the last administration [3, 19]: -
Change of E.P.G. 7th day [4, 17]: 0 E.P.G.
inhibition in vivo at 10 ppm [6, 15]: 80 to 90%
inhibition in vivo at 50 ppm [6, 16]: 100%

C=CCN(OC)C(=O)c1ccccc1 [Compound B5, N-allyl-N-benzoyl-O-methylhydroxylamine]
anthelmintic effect ([2]; one administration of 50 mg/Kg): marked anthelmintic effect
Change of E.P.G. 7th day [2, 11]: 0 E.P.G.
Change of E.P.G. Before administration ([4]; pigs, 50 mg/Kg orally once, baseline, one value per pig, 50 mg/kg): 2,100 E.P.G. and 1,300 E.P.G.
Change of E.P.G. 7th day [4, 12]: 0 E.P.G.
inhibition in vivo at 30 mg/kg [5, 13]: 100%
inhibition in vivo at 50 mg/kg [5, 14]: 100%
inhibition in vivo at 20 ppm [6, 15]: 80 to 90%
inhibition in vivo at 50 ppm [6, 16]: 100%

Reference: EP0103895A2, “Novel hydroxylamine derivatives, production and use thereof” (MEIJI SEIKA KABUSHIKI KAISHA, priority 1982, dated 1984)
